The test concerns Aβ1-42 production. The test can be described thus: Cellular assay for inhibition of Aβ1-42 production (H4 APP751 SWE clone 8.20). The format is cell-based. As to conditions: H4 APP751 SWE clone 8.20 cells, 19 h incubation. The essentials:
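Secreted peptide was quantified with a two-antibody homogeneous format combining Wallac-labelled 565, which recognises the Aβ42 end, and APC-labelled 26D6 at 0.8 and 75 ng/well respectively. Antibodies were diluted in 40 mM Tris-HCl, pH 7.4, 0.2% BSA and left overnight at 4 °C after a 19 h compound incubation.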

The mark [1] stands for this setting: 19 h, read-out: Activity Rating (Aβ42 cellular IC50), numeric value.
[2] abbreviates: 19 h, class symbols, read-out: Activity Rating (Aβ42 cellular IC50).
Setting [3] is: class symbols, read-out: Activity Rating (Aβ42 cellular IC50).

Structures can show the parent of a compound that is named as a salt. Where two headings read alike, the source gives them in different places.

As a reminder, the IC50 is the midpoint of a concentration-inhibition curve. Consider `COc1cc(Nc2nc3c(c(N4CC(Cl)C4)n2)CCC3c2ccccc2)ccc1-n1cnc(Cl)c1` (stereo not drawn) [Example 181B, N-(4-(4-chloro-1H-imidazol-1-yl)-3-methoxyphenyl)-4-(3-chloroazetidin-1-yl)-7-phenyl-6,7-dihydro-5H-cyclopenta[d]pyrimidin-2-amine], for which, under setting [1], the concentration for half-maximal inhibition (IC50) amounted to 50 nM. Take `CNc1nc(Nc2ccc(-n3cnc(C)n3)c(OC)c2)nc2c1COCC2c1ccc(Cl)cc1` (stereo not drawn) [Example 71, 8-(4-chlorophenyl)-N^2-(3-methoxy-4-(3-methyl-1H-1,2,4-triazol-1-yl)phenyl)-N^4-methyl-7,8-dihydro-5H-pyrano[4,3-d]pyrimidine-2,4-diamine]: under setting [2], the concentration for half-maximal inhibition (IC50) is 10 to 100 nM.

For the molecule `COc1cc(Nc2nc3c(c(N4CC(F)(F)C4)n2)COCC3c2ccc(F)cc2)ccc1-n1cnc(Cl)c1` (stereo not drawn) [Example 63A, N-(4-(4-chloro-1H-imidazol-1-yl)-3-methoxyphenyl)-4-(3,3-difluoroazetidin-1-yl)-8-(4-fluorophenyl)-7,8-dihydro-5H-pyrano[4,3-d]pyrimidin-2-amine], the IC50 under setting [3] was in the range of 10 to 100 nM. On the same count and under the same terms, then `CCNc1nc(Nc2ccc(-n3cnc(Cl)c3)c(OC)c2)nc2c1COCC2c1ccc(C(F)(F)F)cc1` (stereo not drawn) [Example 118B, N2-(4-(4-chloro-1H-imidazol-1-yl)-3-methoxyphenyl)-N4-ethyl-8-(4-(trifluoromethyl)phenyl)-7,8-dihydro-5H-pyrano[4,3-d]pyrimidine-2,4-diamine], with 100 to 1000 nM. For the molecule `CNc1nc(Nc2ccc(C3(C#N)CC3)cc2)nc2c1CCC2c1ccccc1` (stereo not drawn) [Example 247, 1-(4-(4-(methylamino)-7-phenyl-6,7-dihydro-5H-cyclopenta[d]pyrimidin-2-ylamino)phenyl)cyclopropanecarbonitrile], the IC50 under setting [2] is 100 to 1000 nM.

Regarding `COc1cc(Nc2nc3c(c(N4CCCC4C)n2)CCC3c2ccc(F)cc2)ccc1-n1cnc(Cl)c1` (single isomer, unassigned) [Example 20, N-(4-(4-chloro-1H-imidazol-1-yl)-3-methoxyphenyl)-7-(4-fluorophenyl)-4-(2-methylpyrrolidin-1-yl)-6,7-dihydro-5H-cyclopenta[d]pyrimidin-2-amine], the half-inhibitory concentration (IC50) under setting [3] lay within 1.5 to 9.9 nM. Regarding `CCNc1nc(Nc2ccc(-n3cnc(Cl)c3)c(OC)c2)nc2c1COCC2c1ccc(C#N)cc1` (racemic) [Example 121, 4-(2-(4-(4-chloro-1H-imidazol-1-yl)-3-methoxyphenylamino)-4-(ethylamino)-7,8-dihydro-5H-pyrano[4,3-d]pyrimidin-8-yl)benzonitrile, TFA], under setting [2], the IC50 fell in the range of 10 to 100 nM. As to `COc1cc(Nc2nc3c(c(N4CC[C@@H](F)C4)n2)CCN(S(C)(=O)=O)C3c2ccc(F)cc2)ccc1-n1cnc(Cl)c1` (stereo partly drawn) [Example 173], the IC50 under setting [1] is 490 nM. For `COc1cc(Nc2nc3c(c(N4CCCC4C)n2)CCC3c2ccc(F)cc2)ccc1-n1cnc(Cl)c1` (single isomer, unassigned) [Example 19, N-(4-(4-chloro-1H-imidazol-1-yl)-3-methoxyphenyl)-7-(4-fluorophenyl)-4-(2-methylpyrrolidin-1-yl)-6,7-dihydro-5H-cyclopenta[d]pyrimidin-2-amine], the IC50 under setting [3] lay within 10 to 100 nM.

In the case of `COc1cc(Nc2nc3c(c(N4CC(F)(F)C4)n2)CCC3c2ccc(Cl)cc2)ccc1-n1cnc(Cl)c1` (stereo not drawn) [Example 93, N-(4-(4-Chloro-1H-imidazol-1-yl)-3-methoxyphenyl)-7-(4-chlorophenyl)-4-(3,3-difluoroazetidin-1-yl)-6,7-dihydro-5H-cyclopenta[d]pyrimidin-2-amine], the IC50 under setting [1] amounted to 20 nM. With `CNc1nc(Nc2ccc(-n3ncnc3C)c(F)c2)nc2c1COC2c1ccc(F)cc1` (stereo not drawn) [Example 82A, N2-(3-fluoro-4-(5-methyl-1H-1,2,4-triazol-1-yl)phenyl)-7-(4-fluorophenyl)-N4-methyl-5,7-dihydrofuro[3,4-d]pyrimidine-2,4-diamine], the IC50 under setting [3] was 1.5 to 9.9 nM. Take `CNc1nc(Nc2ccc(-n3cnc(C)n3)c(OC)c2)nc2c1CCC2c1ccc(C(F)(F)F)nc1` (stereo not drawn) [Example 276, N2-(3-methoxy-4-(3-methyl-1H-1,2,4-triazol-1-yl)phenyl)-N4-methyl-7-(6-(trifluoromethyl)pyridin-3-yl)-6,7-dihydro-5H-cyclopenta[d]pyrimidine-2,4-diamine]: the concentration for half-maximal inhibition (IC50) under setting [2] was 10 to 100 nM. Regarding `[2H]C([2H])([2H])Nc1nc(Nc2ccc(-n3cnc(Cl)c3)c(OC)c2)nc2c1CCC2c1ccccc1` (single isomer, unassigned) [Example 176B, N^2-(4-(4-Chloro-1H-imidazol-1-yl)-3-methoxyphenyl)-N^4-trideuteromethyl-7-phenyl-6,7-dihydro-5H-cyclopenta[d]pyrimidine-2,4-diamine], the half-maximal inhibitory concentration (IC50) under setting [3] was in the range of 1.5 to 9.9 nM. With `COc1cc(Nc2nc3c(c(N4CCC(F)C4)n2)CCOC3c2ccc(F)cc2)ccc1-n1cnc(Cl)c1` (stereo in doubt) [Example 90B, N-(4-(4-chloro-1H-imidazol-1-yl)-3-methoxyphenyl)-8-(4-fluorophenyl)-4-((R)-3-fluoropyrrolidin-1-yl)-6,8-dihydro-5H-pyrano[3,4-d]pyrimidin-2-amine], under setting [1], the IC50 came to 270 nM. The same measure, in the same setting: to `CCN(C)c1nc(Nc2ccc(-n3cnc(Cl)c3)c(OC)c2)nc2c1CN(C)CC2c1ccc(F)cc1` (stereo not drawn) [Example 165B, N2-(4-(4-chloro-1H-imidazol-1-yl)-3-methoxyphenyl)-N4-ethyl-8-(4-fluorophenyl)-N4,6-dimethyl-5,6,7,8-tetrahydropyrido[4,3-d]pyrimidine-2,4-diamine] belongs 180 nM. In the case of `COc1cc(Nc2nc3c(c(N4C[C@@H]5C[C@H]4CO5)n2)CCC3c2ccc(F)cc2)ccc1-n1cnc(Cl)c1` (stereo partly drawn) [Example 18, 4-((1S,4S)-2-oxa-5-azabicyclo[2.2.1]heptan-5-yl)-N-(4-(4-chloro-1H-imidazol-1-yl)-3-methoxyphenyl)-7-(4-fluorophenyl)-6,7-dihydro-5H-cyclopenta[d]pyrimidin-2-amine], the IC50 under setting [2] was 10 to 100 nM.

`CNc1nc(Nc2ccc(-n3ncnc3C)c(F)c2)nc2c1COCC2c1ccc(Br)cc1` (stereo not drawn) [Example 73, 8-(4-bromophenyl)-N^2-(3-fluoro-4-(5-methyl-1H-1,2,4-triazol-1-yl)phenyl)-N^4-methyl-7,8-dihydro-5H-pyrano[4,3-d]pyrimidine-2,4-diamine]: the IC50 under setting [1] is 3.8 nM. In the case of `CNc1nc(Nc2ccc(-c3cc(Cl)ncn3)c(OC)c2)nc2c1CCC2c1ccccc1` (stereo not drawn) [Example 277, N2-(4-(6-chloropyrimidin-4-yl)-3-methoxyphenyl)-N4-methyl-7-phenyl-6,7-dihydro-5H-cyclopenta[d]pyrimidine-2,4-diamine], the IC50 under setting [2] was over 1000 nM.

In the case of `CCNc1nc(Nc2ccc(-n3ncnc3C)c(F)c2)nc2c1CN(CC(F)F)CC2c1ccccc1` (stereo not drawn) [Example 194B, 6-(2,2-difluoroethyl)-N4-ethyl-N2-(3-fluoro-4-(5-methyl-1H-1,2,4-triazol-1-yl)phenyl)-8-phenyl-5,6,7,8-tetrahydropyrido[4,3-d]pyrimidine-2,4-diamine], the IC50 under setting [1] worked out at 175 nM. As for `CCNc1nc(Nc2ccc(-n3cnc(Cl)c3)c(OC)c2)nc2c1CN(C(=O)CN(C)C)CC2c1ccccc1` (stereo not drawn) [Example 135, 1-(2-(4-(4-chloro-1H-imidazol-1-yl)-3-methoxyphenylamino)-4-(ethylamino)-8-phenyl-7,8-dihydropyrido[4,3-d]pyrimidin-6(5H)-yl)-2-(dimethylamino)ethanone], the IC50 under setting [2] was in the range of 10 to 100 nM. Take `COc1cc(Nc2nc3c(c(N4CCC(F)(F)C4)n2)CCC3c2cc(F)c(F)c(F)c2)ccc1-n1cnc(Cl)c1` (single isomer, unassigned) [Example 107B, N-(4-(4-chloro-1H-imidazol-1-yl)-3-methoxyphenyl)-4-(3,3-difluoropyrrolidin-1-yl)-7-(3,4,5-trifluorophenyl)-6,7-dihydro-5H-cyclopenta[d]pyrimidin-2-amine]: under setting [3], the IC50 was 100 to 1000 nM.

With `COc1cc(Nc2nc3c(c(N4CC[C@@H](F)C4)n2)COCC3c2ccc(OC(F)(F)F)cc2)ccc1-n1cnc(Cl)c1` (stereo partly drawn) [Example 123A], the concentration for half-maximal inhibition (IC50) under setting [2] is 10 to 100 nM. Same read-out and setting: to `COc1cc(Nc2nc3c(c(N4CCN(C)CC4)n2)CCC3c2ccc(F)cc2)ccc1-n1cnc(Cl)c1` (single isomer, unassigned) [Example 30A, N-(4-(4-chloro-1H-imidazol-1-yl)-3-methoxyphenyl)-7-(4-fluorophenyl)-4-(4-methylpiperazin-1-yl)-6,7-dihydro-5H-cyclopenta[d]pyrimidin-2-amine] belongs 10 to 100 nM. On the same count and under the same terms, to `CNc1nc(Nc2ccc(-n3cnc(Cl)c3)c(OC)c2)nc2c1CN(C)CC2c1ccccc1` (stereo not drawn) [Example 148A, N2-(4-(4-chloro-1H-imidazol-1-yl)-3-methoxyphenyl)-N4,6-dimethyl-8-phenyl-5,6,7,8-tetrahydropyrido[4,3-d]pyrimidine-2,4-diamine] belongs 1.5 to 9.9 nM.

Regarding `CCNc1nc(Nc2ccc(-n3cnc(Cl)c3)c(OC)c2)nc2c1CCC2c1ccc(OC(F)(F)F)cc1` (single isomer, unassigned) [Example 98A, N^2-(4-(4-Chloro-1H-imidazol-1-yl)-3-methoxyphenyl)-N^4-ethyl-7-(4-(trifluoromethoxy)phenyl)-6,7-dihydro-5H-cyclopenta[d]pyrimidine-2,4-diamine], under setting [3], the IC50 is 1.5 to 9.9 nM. `COc1cc(Nc2nc3c(c(N4CC(C)(O)C4)n2)CCC3c2ccc(F)cc2)ccc1-n1cnc(Cl)c1` (stereo not drawn) [Example 189A, 1-(2-(4-(4-chloro-1H-imidazol-1-yl)-3-methoxyphenylamino)-7-(4-fluorophenyl)-6,7-dihydro-5H-cyclopenta[d]pyrimidin-4-yl)-3-methylazetidin-3-ol]: under setting [3], the IC50 was in the range of 1.5 to 9.9 nM. `CNc1nc(Nc2ccc(-n3ncnc3C)c(F)c2)nc2c1CCOC2c1ccccc1` (stereo not drawn) [Example 87, N2-(3-fluoro-4-(5-methyl-1H-1,2,4-triazol-1-yl)phenyl)-N4-methyl-8-phenyl-6,8-dihydro-5H-pyrano[3,4-d]pyrimidine-2,4-diamine]: the IC50 under setting [1] came out at 60 nM.

Values taken from patent US8637525B2, “Compounds for the reduction of beta-amyloid production” (Bristol-Myers Squibb Company, priority 2009, dated 2014).
